Experimental data taken from ChEMBL document CHEMBL3639112, “Modulators of calcium release-activated calcium channel and methods for treatment of non-small cell lung cancer” (2015).

Molecular target: Calcium release-activated calcium channel protein 1 (Homo sapiens, UniProt Q96D31)
Assay: Inhibition Assay: Inhibition of CRAC channels was determined following thapsigargin (Sigma, Cat # T9033) induced endoplasmic calcium release in Jurkat cells. (see Yasurio Yonetoky et. al Bio. & Med. Chem. 14 (2006) 4750-4760). Cells were centrifuged and resuspended in equal volumes f Ca2+ and Mg2+ free Hanks buffer and Fluo-8 NW dye (ABD Bioquest, Inc., Sunnyvale, Calif.) loading solution at 2x10^5 cells/100 ul/well in 96-well black plate. Plate is incubated at 37 C./5% CO2 […] followed by further […] at room temperature. Test compounds (DMSO stocks diluted in Ca2+ and Mg2+ free Hanks buffer) at desired concentrations were added to the wells and […]. Thapsigargin (1 uM final concentration) was added to the wells and incubated for 15 min to inhibit the Sarco-endoplasmic reticulum Ca2+ ATPase pump thereby depleting endoplasmic calcium and raising cytosolic calcium concentrations. Store-operated calcium entry was initiated by adding extracellular Ca2+.
Assay type: cell-based

Calcium release-activated calcium channel protein 1, sequence (Q96D31 whole entry): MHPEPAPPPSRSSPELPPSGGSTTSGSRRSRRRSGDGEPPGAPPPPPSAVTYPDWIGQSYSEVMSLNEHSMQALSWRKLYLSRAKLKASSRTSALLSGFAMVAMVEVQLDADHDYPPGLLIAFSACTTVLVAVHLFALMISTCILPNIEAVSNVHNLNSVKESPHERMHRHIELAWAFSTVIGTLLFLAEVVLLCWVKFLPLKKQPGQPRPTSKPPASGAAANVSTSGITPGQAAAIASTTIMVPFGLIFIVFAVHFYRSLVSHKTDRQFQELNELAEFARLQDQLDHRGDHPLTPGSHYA

| IC50 [nM] | SMILES |
| --- | --- |
| 86.1 | O=C(Nc1ccc(-n2nc(C(F)(F)F)cc2C2CC2)cc1)c1ccc2ncccc2c1 |
| 147 | O=C(Cc1ccc2ncccc2c1)Nc1ccc(-n2nc(C3CC3)cc2C2CC2)cc1 |
